In US20060183901A1, “Crystalline form of an indazole-carboxamide compound” (THERAVANCE, INC., priority 2005, published 2006):

Assays:
[1] = system: Caco-2 cell monolayer; assay: Caco-2 permeation assay; format: in vitro ADME, human; details: 100 μM, 37° C., 60 min
Method: Assay 5: In Vitro Model of Oral Bioavailability: Caco-2 Permeation Assay
The Caco-2 permeation assay was performed to model the ability of test compounds to pass through the intestine and get into the blood stream after oral administration. The rate at which test compounds in solution permeate a cell monolayer designed to mimic the tight junction of human small intestinal monolayers was determined.
Caco-2 (colon, adenocarcinoma; human) cells were obtained from ATCC (American Type Culture Collection; Rockville, Md.). For the permeation study, cells were seeded at a density of 63,000 cells/cm^2 on pre-wetted transwells polycarbonate filters (Costar; Cambridge, Mass.). A cell monolayer was formed after 21 days in culture. Following cell culture in the transwell plate, the membrane containing the cell monolayer was detached from the transwell plate and inserted into the diffusion chamber (Costar; Cambridge, Mass.). The diffusion chamber was inserted into the heating block which was equipped with circulating external, thermostatically regulated 37° C. water for temperature control. […]
The permeation study was performed with test compound concentrations at 100 μM and with ^14C-mannitol to monitor the integrity of the monolayer. […] Samples were analyzed by HPLC or liquid scintillation counting for test compound and mannitol concentrations. The permeation coefficient (Kp) in cm/sec was calculated.

[2] = Pharmacokinetic study in the rat; details: in vivo
Method: Assay 6: Pharmacokinetic Study in the Rat
Aqueous solution formulations of test compounds were prepared in 0.1% lactic acid at a pH of between about 5 and about 6. Male Sprague-Dawley rats (CD strain, Charles River Laboratories, Wilmington, Mass.) were dosed with test compounds via intravenous administration (IV) at a dose of 2.5 mg/kg or by oral gavage (PO) at a dose of 5 mg/kg. The dosing volume was 1 mL/kg for IV and 2 mL/kg for PO administration. Serial blood samples were collected from animals pre-dose, and at 2 (IV only), 5, 15, and 30 min, and at 1, 2, 4, 8, and 24 hours post-dose. Concentrations of test compounds in blood plasma were determined by liquid chromatography-mass spectrometry analysis (LC-MS/MS) (MDS SCIEX, API 4000, Applied Biosystems, Foster City, Calif.) with a lower limit of quantitation of 1 ng/mL.
Standard pharmacokinetic parameters were assessed by non-compartmental analysis (Model 201 for IV and Model 200 for PO) using WinNonlin (Version 4.0.1, Pharsight, Mountain View, Calif.). The maximum in the curve of test compound concentration in blood plasma vs. time is denoted Cmax. The area under the concentration vs. time curve from the time of dosing to the last measurable concentration (AUC(0-t)) was calculated by the linear trapezoidal rule. Oral bioavailability (F(%)), i.e. the dose-normalized ratio of AUC(0-t) for PO administration to AUC(0-t) for IV administration, was calculated as: F(%)=AUCPO/AUCIV×DoseIV/DosePO×100%

[3] = male Sprague-Dawley rats, PO 5 mg/kg, blood plasma

In the case of CC(=O)N1CCN(CCN2C3CCC2CC(NC(=O)c2nn(C(C)C)c4ccccc24)C3)CC1 [compound of formula I, 1-isopropyl-1H-indazole-3-carboxylic acid {(1S,3R,5R)-8-[2-(4-acetylpiperazin-1-yl)ethyl]-8-azabicyclo[3.2.1]oct-3-yl}amide], the “permeation coefficient Kp” value [1] is reported as “greater than 20×10^−6 cm/sec”, the AUC(0-t) [2, 3] is reported as 730 ng·h/mL and the Cmax [2, 3] is reported as 250 ng/mL. It also gave a bioavailability ([2]; male, Sprague-Dawley, PO 5 mg/kg vs IV 2.5 mg/kg, read-out: oral bioavailability (F(%))) of about 100%.
